# Measurements from PMC4499186, “Structure of the stationary phase survival protein YuiC from B.subtilis” (BMC Structural Biology, 2015).
# Molecular target: T1, YuiC (degraded K32-E218) (Bacillus subtilis, UniProt O32108)
# T1 construct: mature protein K32-E218, signal peptide removed, E. coli Rosetta 2 (DE3), His-tag cut by TEV leaving GIDPFT; partially proteolysed at or close to R52; residues 72-217 modelled; domain-swapped dimer, site formed by both chains
# T1 sequence (O32108 32-218): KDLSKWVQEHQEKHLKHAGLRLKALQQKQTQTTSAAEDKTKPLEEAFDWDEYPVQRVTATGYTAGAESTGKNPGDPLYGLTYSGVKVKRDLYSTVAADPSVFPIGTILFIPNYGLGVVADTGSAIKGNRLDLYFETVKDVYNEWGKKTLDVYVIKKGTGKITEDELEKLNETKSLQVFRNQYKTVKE
# Test: X-ray crystal structure, […] Å
# Format: binding
# Conditions: 5 mM NAG in crystallisation, pH 6.0; bound at -2 site, one per chain
structure (smiles),measurement,value
"CC(=O)N[C@H]1C(O)O[C@H](CO)[C@@H](O)[C@@H]1O (stereo partly shown) [NAG, N-acetylglucosamine]","X-ray crystal structure, 1.21 Å",Crystallisation of YuiC in the presence of NAG gives a structure with a single
